We go through six molecules from EP2752191A1, “Compositions and methods using hdm2 antagonist and mek inhibitor” (SANOFI, priority 2013, dated 2014).

For one experiment, the system named is 217 kinases. Particulars: tested at 10 µM; cited from earlier work.
The next experiment has as its system 90 non-kinase targets. The note with it: tested at 10 µM; cited from earlier work.
Experiment [1] has as its system panel of twenty cell lines. Nature of the experiment: HDM2-p53 inhibitor / MEK inhibitor combination screen, ATPLite growth inhibition 72 h, Loewe synergy (Example 1). It is filed as cell-based. The note with it: at an FDR < 5% in some cell lines (FIG. 1). The protocol: (§1) The combinations of HDM2-p53 inhibitor and MEK inhibitor were examined in a panel of twenty cell lines (Table 2).
(§2) A 36-point combination dose response matrix over a treatment time of seventy-two hours was used. The method by which this screen was performed is described below.
(§3) Cells were thawed from a liquid nitrogen preserved state. Once cells had been expanded and divided at their expected doubling times, cells were seeded in complete media (Table 3) at 100 cells per well in black 1536 tissue culture treated plates. Assay plates were centrifuged for 2 min at 335 x g, incubated at room temperature for 20 min, and incubated at 37° C for 24 hours before treatment.
ATP levels were used as a measure of cell number (cell growth). At the time of treatment, ATP levels were measured in an untreated set of assay plates (Tzero plates). ATP levels were measured by adding ATPLite (Perkin Elmer) according to manufacturer's instructions. The Tzero plates were read using ultra-sensitive luminescence on Envision Plate Readers. Assay plates receiving treatment were incubated with compound for 72 h at 37° C with 5% CO2. After 72 h, plates were developed for endpoint analysis using ATPLite.
Assay plates were accepted for analysis if they passed the following quality control standards: relative luciferase values were consistent throughout the entire experiment, Z' factor scores were greater than 0.6, untreated/vehicle controls behaved consistently on the plate. The calculation for synergy score is provided below.
Growth Inhibition (GI) was used as a measure of cell viability. As described above, ATP levels were measured at the time of dosing (T0) and after 72 hours (T72). The effect of vehicle alone on cell viability was determined by measuring ATP levels at T0 and 72 hours after treatment of cells with vehicle alone (T72).
GI was calculated by applying the following test and equation: If T < V0 :100*(1-T-V0/V0) [formula] If T ≥ V0 :100*(1-T-V0/V-V0) [formula]
Where T is the signal measure for a test article, V is the vehicle-treated control measure, and V0 is the vehicle control measure at time zero. This formula is derived from the Growth Inhibition calculation used in the National Cancer Institute's NCI-60 high throughput screen, as described on the world wide web at dtp.nci.nih.gov/branches/btb/ivclsp.html. A GI reading of 0% represents no growth inhibition-that is, cells treated with compound had similar levels of ATP as cells treated with vehicle and measured at 72 hours. A GI of 100% represents complete growth inhibition-that is, cells treated with compound had similar levels of ATP as cells treated with vehicle and measured at T0. A GI of 100% where cell numbers have not increased during the treatment period is indicative of a cytostatic effect for compounds reaching a plateau at this effect level. A GI of 200% represents complete death of all cells in the culture well which is indicative of an apoptotic effect.
For each cell line, the dose-response curve was measured with each HDM2-p53 antagonist and each MEK inhibitor as single agents and in pair wise combinations. Using the potency values from the single agent dose-response curves, the compounds were assigned to different groups of similar potency. Multiple doses above and below the EC50 of a given HDM2-p53 antagonist or MEK inhibitor were measured.
In each well of a plate, ATP levels were measured by […] assay as described above. ATP levels are proportional to the number of remaining live cells. […]

A further experiment has as its system C32 cells. Nature of the experiment: ATPLite growth inhibition 72 h, dose matrix (Example 1). In kind it is cell-based. The note with it: single agents, or Compound (1) with Compound (6) present at 1.1 uM; 72 h (FIG. 2). How it is done: as §1, §2, §3
(§4) ATP levels were used as a measure of cell number (cell growth). At the time of treatment, ATP levels were measured in an untreated set of assay plates (Tzero plates). ATP levels were measured by adding ATPLite (Perkin Elmer) according to manufacturer's instructions. The Tzero plates were read using ultra-sensitive luminescence on Envision Plate Readers. […]
(§5) Growth Inhibition (GI) was used as a measure of cell viability. As described above, ATP levels were measured at the time of dosing (T0) and after 72 hours (T72). The effect of vehicle alone on cell viability was determined by measuring ATP levels at T0 and 72 hours after treatment of cells with vehicle alone (T72). […]
A general note: Cellular ATP, detected with luciferase, serves as a proxy for viable cell number.

The test system of the next experiment is MV4-11 cells. Described as above. The note with it: single agents, or Compound (1) with Compound (6) present at 3.3 uM; 72 h (FIG. 3). It is filed as cell-based. How it is done:
as §1, §2, §3, §4, §5

In the case of `O=C(NC[C@H](O)CO)c1ccncc1Nc1ccc(I)cc1F` [Compound (4), N-((S)-2,3-dihydroxypropyl)-3-(2-fluoro-4-iodo-phenylamino)isonicotinamide], in the experiment with 217 kinases, the “activity against 217 kinases” value is on record as “no activity”. Also, the “activity against 90 non-kinase targets” value in the experiment on 90 non-kinase targets is “no activity”.

On to `Cn1cnc2c(F)c(Nc3ccc(Br)cc3Cl)c(C(=O)NOCCO)cc21` [Compound (6)], for which the “Loewe synergy with both Compound (1) and Compound (2)” value (from here on “Loewe synergy with both Compound”) in experiment [1] is listed as “statistically significant Loewe synergy”. The “effect on C32 cells (growth inhibition)” value with C32 cells is “cytostasis”. Moreover, the “effect on MV4-11 cells (growth inhibition)” value in the experiment with MV4-11 cells was “cytostasis”.

Regarding `O=C(NOCC(O)CO)c1ccc(F)c(F)c1Nc1ccc(I)cc1F` (stereo not drawn) [Compound (7), N-(2,3-dihydroxy-propoxy)-3,4-difluoro-2-(2-fluoro-4-iodo-phenylamino)-benzamide], in experiment [1], the “Loewe synergy with both Compound” value is recorded as “statistically significant Loewe synergy”.

With `Cc1cnc(Nc2ccc(F)cc2Cl)nc1-c1c[nH]c(C(=O)N[C@H](CO)c2cccc(Cl)c2)c1` [Compound (8), 4-[2-(2-chloro-4-fluorophenylamino)-5-methylpyrimidin-4-yl]-N-[1(S)-(3-chlorophenyl)-2-hydroxyethyl]-1H-pyrrole-2-carboxamide], the “Loewe synergy with both Compound” value in experiment [1] was “statistically significant Loewe synergy”.

With `CNS(=O)(=O)Nc1nccc(Cc2c(C)c3ccc(Oc4ncccn4)cc3oc2=O)c1F` [Compound (9), N-[3-fluoro-4-[4-methyl-2-oxo-7-(pyrimidin-2-yloxy)-2H-1-benzopyran-3-ylmethyl]pyridin-2-yl]-N'-methylsulfamide], the “Loewe synergy with both Compound” value in experiment [1] is reported as “statistically significant Loewe synergy”.

Take `COc1cc2c(Nc3ccc(Oc4ccccc4)cc3)c(C#N)cnc2cc1OCCCN1CCOCC1` [Compound (10), 6-methoxy-7-[3-(4-morpholinyl)propoxy]-4-(4-phenoxyphenylamino)quinoline-3-carbonitrile]: the “Loewe synergy with both Compound” value in experiment [1] was “statistically significant Loewe synergy”.
